According to US20060252798A1, “Metal ion chelators and therapeutic use thereof” (priority 2003, published 2006):
Where “and” joins values, the source holds several entries; their conditions need not be identical. Identical values can stand only once.

Legend:
Bax = Bax protein level in M109 cells; format: cell-based, mouse; conditions: 1 μM, 48 h
Protocol: Considering the roles of Bcl-2 and Bax in the mitochondrial pathway of apoptosis and their role in h-cytc release, ^8,11,12 the effect of Dp44mT (1 μM) on the protein levels of these molecules was assessed (FIG. 15B).

M109 cells = test: Apoptosis assay by flow cytometry (Annexin V-FITC / PI), cultured M109 cells; format: cell-based, mouse
Protocol: Apoptotic cells were detected by a flow cytometer (FACSCalibur, Becton Dickinson, Calif., USA) using fluorescein isothiocyanate (FITC) labelled Annexin V binding to translocated plasma membrane phosphatidylserine (PS).^25 Propidium iodide (PI) was added to identify loss of cell membrane integrity, which is indicative of necrotic cells.
There was a dose-dependent increase in the percentage of apoptotic and dead cells after Dp44mT treatment (FIG. 13A). Exposure of cells to 1 μM Dp44mT caused a significant (p<0.05) increase of apoptotic and dead cells. This increase peaked at a Dp44mT concentration of 100 μM resulting in a population consisting of 40±7% apoptotic cells and 27±3% dead cells (FIG. 13A).

active caspase-9 = test: Protein level of active caspase-9 in M109 cells (western blotting); format: cell-based, mouse; conditions: 1 μM
Protocol: (§1) FIG. 14. Effect of Dp44mT (1 μM) on the (A,B) protein levels of active caspase-3, -8 and -9, and (C,D) the activity of caspase-3, -8 and -9 in cultured M109 cells in the absence (C) and presence (D) of cell-permeable caspase inhibitors. (A) Caspase-3, -8, and -9 levels after Dp44mT treatment at indicated times as detected by western blotting (upper panel). The anti-β-actin antibody was used to ensure equal protein loading (lower panel). (B) Densitometric analysis of the expression of caspase-3, -8, and -9 as a function of time normalized to β-actin (C) Caspase activity induced by Dp44mT (1 μM) at 0-48 h was expressed as a percentage of the 0 h time value. (D) Cell-permeable inhibitors of caspase-3, -8 or -9 at 1 μM prevented activation of these enzymes when incubated with Dp44mT (1 μM) for 48 h. Results are mean±SEM of three separate experiments.
(§2) Rabbit anti-active caspase-3 antibody, rabbit anti-active caspase-8 antibody and Annexin V fluorescein isothiocyanate (FITC) were from BD PharMingen (San Diego, Calif., USA). Anti-h-cytc MoAb was from R&D Systems Minneapolis, Minn., USA). Rabbit anti-active caspase-9 antibody, mouse anti-Bcl-2 and mouse anti-Bax antibodies were obtained from Santa Cruz (Santa Cruz, Calif., USA). Mouse anti-mouse β-actin antibody, horseradish peroxidase-conjugated antirabbit, and anti-mouse IgG were from Sigma Chemical Co. (St. Louis, Mo., USA).
(§3) To determine the role of caspase activation in Dp44mT-induced apoptosis in M109 cells, protein levels of active caspase-3, -8 and -9 (FIG. 14A,B) and their enzymatic activity (FIG. 14C,D) were examined.

caspase-9 = test: Caspase-9 activity in M109 cells (BD Apolert Caspase Assay Plate); format: cell-based, mouse; conditions: 1 μM
Protocol: Cultured M109 cells were treated with or without Dp44mT (1 μM) for 0-48 h at 37° C. Cells were lysed^27 and caspase activities were determined using the BD Apolert™ Caspase Assay Plate (BD Biosciences, San Diego, Calif., USA). Cell-permeable pan-caspase-3, -8, and -9 inhibitors (BD Biosciences) were included as inhibitory controls.

active caspase-8 = test: Protein level of active caspase-8 in M109 cells (western blotting); format: cell-based, mouse; conditions: 1 μM
Protocol: as §1, §2, §3

M109 lung carcinoma = test: In situ TUNEL assay of tumour samples from treated mice; format: in vivo, mouse; conditions: 0.4 mg/kg, compared to vehicle-treated controls (FIG. 12B)
intracellular ROS = test: Intracellular ROS assay (DCF-DA, flow cytometry), M109 cells; format: cell-based, mouse; conditions: 1 μM
Protocol: Intracellular ROS generation was assessed using the cell-permeable dye 2′,7′-dichlorofluorescein-diacetate (DCF-DA) (Sigma). DCF-DA readily diffuses into cells and becomes highly fluorescent when oxidised by O2^•−, H2O2, or OH^−.^29 Cellular fluorescence intensity is directly proportional to the level of intracellular ROS.^29 M109 cells (1×10^5 cells/well) were incubated with or without 1 μM Dp44mT for 0-48 h or 50 μM H2O2 (positive control) for 10 min at 37° C. The cells were then incubated with DCF-DA (5 μM) for 20 min at 37° C., washed twice, and detached from the culture plates. The fluorescence of oxidised DCF in cells was measured using flow cytometry.^29)
To test whether induction of h-cytc release from the mitochondrion (FIG. 15A) and the imbalance of Bcl-2/Bax expression (FIG. 15B) was due to the presence of ROS, intracellular ROS were measured by flow cytometry using the DCFH-DA probe which becomes fluorescent when oxidised by O2^•−, H2O2, or OH^−.^29 Incubation of M109 cells with Dp44mT (1 μM) increased the levels of oxidised probe as a function of time. After 2 h, a 25±10% increase in oxidised DCFH-DA fluorescence was found compared to the 0 h time point, and this increased to 486±96% after 48 h (FIG. 15C). For comparison, a 10 min incubation with the positive control, H2O2 (50 μM), increased fluorescence to 1312±46% of the 0 h time point (FIG. 15C)

active caspase-3 = test: Protein level of active caspase-3 in M109 cells (western blotting); format: cell-based, mouse; conditions: 1 μM
Protocol: as §1, §2, §3

[1] = test system: iron regulatory proteins (IRPs); test: IRP-RNA-binding activity, gel-retardation assay, SK-N-MC cells; format: cell-based, human; conditions: DFO 100 μM, FAC 100 μg/ml, other chelators 25 μM, 20 h (FIG. 8)
Protocol: The IRP-RNA-binding activity was then assessed by the gel-retardation assay. Aliquots of cell lysate containing 2 μg of protein were incubated with 0.1 ng (approximately 1×10^5 cpm) of ^32P-labelled riboprobe for 30 min at room temperature. Using this protocol the level of RNA added was saturating. Unprotected probe was degraded by incubation with 1 U of RNAse T1 for 10 min at room temperature. Heparin (5 mg/ml) was then added for another 10 min to exclude non-specific binding. The IRE-protein complexes were analyzed on 6% non-denaturing polyacrylamide gels. In parallel experiments, samples were treated with ferricyanide (FeCN, 5 mM) and 0.5% β-mercaptoethanol (β-ME), prior to addition of the IRE probe. This procedure results in the conversion of IRP1, whether spontaneously active or not, into an active IRE-binding form.^22

[2] = test system: SK-N-MC neuroepithelioma cells; test: 3H-thymidine incorporation by SK-N-MC cells; format: cell-based, human; conditions: 20 h incubation then 2 h label; Mean ± SD, 4 experiments
Protocol: After a 20 h incubation of the SK-N-MC cells with a selection of analogues, ^3H-thymidine, ^3H-leucine, or ^3H-uridine (1 μCi/ml) was added for 2 h at 37° C. The cells were detached from the 96 well plate using 1 mM EDTA in Ca(II)/Mg(II)-free PBS and collected and washed using a cell harvester (Tomtec Harvester 96, Linbrook, Queensland, Australia). Radioactivity was measured on a P-scintillation counter (LKB Wallace, Turku, Finland).

## CN(C)C(=S)NN=C(c1ccccn1)c1ccccn1 [Dp44mT, di-2-pyridylketone 4,4-dimethyl-3-thiosemicarbazone]
Bax
  Bax expression: 500 % of that found at the 0 h time point
M109 cells; 1 μM, 12 h
  apoptotic cells: 12±2%
M109 cells; 100 μM, 24 h
  apoptotic cells: 40±7%
  dead cells: 27±3%
M109 cells; 250 μM, 24 h
  apoptotic cell numbers: 20±2%
  dead cell population: 42±6%
Active caspase-9; 2 h
  caspase-9 protein level: 171 % of the control
Active caspase-9; 6 h
  caspase-9 protein level: 280 % of the control
Active caspase-9; 12 h
  caspase-9 protein level: 280 % of the control
Active caspase-9; 24 h
  caspase-9 protein level: about 4 fold that of control cells
Active caspase-9; 48 h
  caspase-9 protein level: greater than 10 fold that of control cells
caspase-9; 12 h
  caspase-9 activity: 354 % of the control
caspase-9; after 24 h
  caspase-9 activity (plateau): 400-600 % of the control
Active caspase-8; 2 h
  caspase-8 protein level: not increased
Active caspase-8; 6 h
  caspase-8 protein level: 150 % of the control
Active caspase-8; 12 h
  caspase-8 protein level: 400 % of the control
Active caspase-8; 24 h
  caspase-8 protein level: about 4 fold that of control cells
Active caspase-8; 48 h
  caspase-8 protein level: 3.4 fold that of control cells
M109 lung carcinoma
  apoptotic cell death in tumour samples: increased apoptotic cell death
Intracellular ROS; 2 h
  increase in oxidised DCFH-DA fluorescence compared to the 0 h time point: 25±10%
Intracellular ROS; 48 h
  oxidised DCFH-DA fluorescence (increased to): 486±96%
Active caspase-3; 2 h
  caspase-3 protein level: 168 % of the control
Active caspase-3; 6 h
  caspase-3 protein level: 400 % of the control
Active caspase-3; 12 h
  caspase-3 protein level: 380 % of the control
Active caspase-3; 24 h
  caspase-3 protein level: about 4 fold that of control cells
Active caspase-3; 48 h
  caspase-3 protein level: 5.5 fold that of control cells

## CC(=O)N(O)CCCCCNC(=O)CCC(=O)N(O)CCCCCNC(=O)CCC(=O)N(O)CCCCCN [DFO, desferrioxamine]
[1]
  IRP-RNA binding activity: increase
[2]
  3H-Thymidine Incorporation: 29 ± 13 % Control and 29 + 13 % Control
